Literature values as cited in US20020048551A1, “Delivery of biologically active material in a liposomal formulation for administration into the mouth” (priority 1999, published 2002).

Settings: tablet absorbed through the buccal mucosa

In the case of `C[C@]12CCC(=O)C=C1CC[C@@H]1[C@@H]2CC[C@@]2(C)[C@H]1CC[C@]2(C)O` [methyltestosterone], the “androgenic activity relative to oral tablets” value is given as “twice”.
